According to PubChem BioAssay AID1963825 (Molecular Pharmacology Branch, DTP, NCI, 2024):

Test: Anticancer human tumor 997537-175-T-J1-PDC patient-derived colon adenocarcinoma cell line growth inhibition [POLQ]
Settings: 997537-175-T-J1-PDC complex spheroid viability, combination with POLQ inhibitors; for IC50: curve of first compound; for viability, T/C: stronger effect = lower value
Method in brief: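 Three-cell-type spheroids modelling solid tumor plus stroma served as the readout system; POL inhibitors were tested individually and in combination, concentration ranges set by clinical Cmax where known.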

[1] = second compound 0.0316 µM, first compound 0.0316 µM
[2] = second compound 0.0316 µM, first compound 0.1 µM
[3] = second compound 0.0316 µM, first compound 0.316 µM
[4] = second compound 0.0316 µM, first compound 1 µM
[5] = second compound 0.0316 µM, first compound 3.16 µM
[6] = second compound 0.0316 µM, first compound 10 µM
[7] = second compound 0.1 µM, first compound 0.0316 µM
[8] = second compound 0.1 µM, first compound 0.1 µM
[9] = second compound 0.1 µM, first compound 0.316 µM
[10] = second compound 0.1 µM, first compound 1 µM
[11] = second compound 0.1 µM, first compound 3.16 µM
[12] = second compound 0.1 µM, first compound 10 µM
[13] = second compound 0.316 µM, first compound 0.0316 µM
[14] = second compound 0.316 µM, first compound 0.1 µM
[15] = second compound 0.316 µM, first compound 0.316 µM
[16] = second compound 0.316 µM, first compound 1 µM
[17] = second compound 0.316 µM, first compound 3.16 µM
[18] = second compound 0.316 µM, first compound 10 µM
[19] = second compound 1 µM, first compound 0.0316 µM
[20] = second compound 1 µM, first compound 0.1 µM
[21] = second compound 1 µM, first compound 0.316 µM
[22] = second compound 1 µM, first compound 1 µM
[23] = second compound 1 µM, first compound 3.16 µM
[24] = second compound 1 µM, first compound 10 µM
[25] = second compound 3.16 µM, first compound 0.0316 µM
[26] = second compound 3.16 µM, first compound 0.1 µM
[27] = second compound 3.16 µM, first compound 0.316 µM
[28] = second compound 3.16 µM, first compound 1 µM
[29] = second compound 3.16 µM, first compound 3.16 µM
[30] = second compound 3.16 µM, first compound 10 µM
[31] = second compound 10 µM, first compound 0.0316 µM
[32] = second compound 10 µM, first compound 0.1 µM
[33] = second compound 10 µM, first compound 0.316 µM
[34] = second compound 10 µM, first compound 1 µM
[35] = second compound 10 µM, first compound 3.16 µM
[36] = second compound 10 µM, first compound 10 µM
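Note: luminescence signal used as a surrogate for viable cells; spheroids exposed to drugs for seven days before readout.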

C#Cc1c(F)ccc2cc(O)cc(-c3ncc4c(N5CC6CCC(C5)N6)nc(OCC56CCCN5CC(F)C6)nc4c3F)c12 (stereo not given) + COC1C(OC(N)=O)C(O)C(Oc2ccc3c(O)c(NC(=O)c4ccc(O)c(CC=C(C)C)c4)c(=O)oc3c2C)OC1(C)C
IC50 (second compound 0.0316 µM): > 10 µM
IC50 (second compound 0.1 µM): > 10 µM
IC50 (second compound 0.316 µM): > 10 µM
IC50 (second compound 1 µM): > 10 µM
IC50 (second compound 3.16 µM): > 10 µM
IC50 (second compound 10 µM): > 10 µM
viability, T/C [1]: 98.8%
viability, T/C [2]: 111%
viability, T/C [3]: 103%
viability, T/C [4]: 108%
viability, T/C [5]: 112%
viability, T/C [6]: 107%
viability, T/C [7]: 119%
viability, T/C [8]: 104%
viability, T/C [9]: 105%
viability, T/C [10]: 99%
viability, T/C [11]: 123%
viability, T/C [12]: 103%
viability, T/C [13]: 108%
viability, T/C [14]: 116%
viability, T/C [15]: 97.9%
viability, T/C [16]: 104%
viability, T/C [17]: 101%
viability, T/C [18]: 98.4%
viability, T/C [19]: 107%
viability, T/C [20]: 121%
viability, T/C [21]: 94.9%
viability, T/C [22]: 95.9%
viability, T/C [23]: 111%
viability, T/C [24]: 97.9%
viability, T/C [25]: 108%
viability, T/C [26]: 112%
viability, T/C [27]: 84.1%
viability, T/C [28]: 104%
viability, T/C [29]: 119%
viability, T/C [30]: 95.8%
viability, T/C [31]: 101%
viability, T/C [32]: 108%
viability, T/C [33]: 109%
viability, T/C [34]: 106%
viability, T/C [35]: 110%
viability, T/C [36]: 97.1%

CC1COCCN1c1cc(C2(O)CC3CCC(C2)O3)c2cnn(-c3ccn[nH]3)c2n1 (stereo not given) + COC1C(OC(N)=O)C(O)C(Oc2ccc3c(O)c(NC(=O)c4ccc(O)c(CC=C(C)C)c4)c(=O)oc3c2C)OC1(C)C
IC50 (second compound 0.0316 µM): 0.234 µM
IC50 (second compound 0.1 µM): 0.276 µM
IC50 (second compound 0.316 µM): 0.29 µM
IC50 (second compound 1 µM): > 10 µM
IC50 (second compound 3.16 µM): > 10 µM
IC50 (second compound 10 µM): > 10 µM
viability, T/C [1]: 72.4%
viability, T/C [2]: 70.1%
viability, T/C [3]: 42.2%
viability, T/C [4]: 36.9%
viability, T/C [5]: 40.1%
viability, T/C [6]: 52%
viability, T/C [7]: 75.6%
viability, T/C [8]: 81.3%
viability, T/C [9]: 36%
viability, T/C [10]: 37.9%
viability, T/C [11]: 50.3%
viability, T/C [12]: 60.8%
viability, T/C [13]: 84.2%
viability, T/C [14]: 66.8%
viability, T/C [15]: 41.2%
viability, T/C [16]: 51.1%
viability, T/C [17]: 51.4%
viability, T/C [18]: 50.8%
viability, T/C [19]: 82.9%
viability, T/C [20]: 68%
viability, T/C [21]: 59.5%
viability, T/C [22]: 55.3%
viability, T/C [23]: 64.2%
viability, T/C [24]: 42.8%
viability, T/C [25]: 82.8%
viability, T/C [26]: 68.1%
viability, T/C [27]: 47.9%
viability, T/C [28]: 48.9%
viability, T/C [29]: 61.7%
viability, T/C [30]: 50.8%
viability, T/C [31]: 71.3%
viability, T/C [32]: 60.5%
viability, T/C [33]: 41.1%
viability, T/C [34]: 58.3%
viability, T/C [35]: 61.7%
viability, T/C [36]: 63.6%

COc1cc2cc(C(=O)CCC(=O)O)sc2cc1OC + COC1C(OC(N)=O)C(O)C(Oc2ccc3c(O)c(NC(=O)c4ccc(O)c(CC=C(C)C)c4)c(=O)oc3c2C)OC1(C)C
IC50 (second compound 0.0316 µM): > 10 µM
IC50 (second compound 0.1 µM): > 10 µM
IC50 (second compound 0.316 µM): > 10 µM
IC50 (second compound 1 µM): > 10 µM
IC50 (second compound 3.16 µM): > 10 µM
IC50 (second compound 10 µM): > 10 µM
viability, T/C [1]: 95.1%
viability, T/C [2]: 98.6%
viability, T/C [3]: 88.1%
viability, T/C [4]: 92.5%
viability, T/C [5]: 89.7%
viability, T/C [6]: 80.3%
viability, T/C [7]: 94.3%
viability, T/C [8]: 96.3%
viability, T/C [9]: 87.5%
viability, T/C [10]: 93.5%
viability, T/C [11]: 99.1%
viability, T/C [12]: 92.2%
viability, T/C [13]: 101%
viability, T/C [14]: 108%
viability, T/C [15]: 99.9%
viability, T/C [16]: 96.2%
viability, T/C [17]: 86.2%
viability, T/C [18]: 91.8%
viability, T/C [19]: 100%
viability, T/C [20]: 98.4%
viability, T/C [21]: 104%
viability, T/C [22]: 93.5%
viability, T/C [23]: 100%
viability, T/C [24]: 90.4%
viability, T/C [25]: 96.2%
viability, T/C [26]: 101%
viability, T/C [27]: 96.5%
viability, T/C [28]: 101%
viability, T/C [29]: 97.3%
viability, T/C [30]: 105%
viability, T/C [31]: 97.2%
viability, T/C [32]: 89.6%
viability, T/C [33]: 95.5%
viability, T/C [34]: 104%
viability, T/C [35]: 94.8%
viability, T/C [36]: 84.1%

O=C(Nc1ccc(O)c(NS(=O)(=O)c2ccc(F)cc2)c1)c1ccc(-c2ccccc2)cc1 + COC1C(OC(N)=O)C(O)C(Oc2ccc3c(O)c(NC(=O)c4ccc(O)c(CC=C(C)C)c4)c(=O)oc3c2C)OC1(C)C
IC50 (second compound 0.0316 µM): > 10 µM
IC50 (second compound 0.1 µM): > 10 µM
IC50 (second compound 0.316 µM): > 10 µM
IC50 (second compound 1 µM): > 10 µM
IC50 (second compound 3.16 µM): > 10 µM
IC50 (second compound 10 µM): > 10 µM
viability, T/C [1]: 98.4%
viability, T/C [2]: 109%
viability, T/C [3]: 104%
viability, T/C [4]: 103%
viability, T/C [5]: 102%
viability, T/C [6]: 97.3%
viability, T/C [7]: 112%
viability, T/C [8]: 94.4%
viability, T/C [9]: 97%
viability, T/C [10]: 88.8%
viability, T/C [11]: 96%
viability, T/C [12]: 95.1%
viability, T/C [13]: 108%
viability, T/C [14]: 102%
viability, T/C [15]: 105%
viability, T/C [16]: 96%
viability, T/C [17]: 102%
viability, T/C [18]: 97.3%
viability, T/C [19]: 98.3%
viability, T/C [20]: 98.7%
viability, T/C [21]: 86%
viability, T/C [22]: 94%
viability, T/C [23]: 93.9%
viability, T/C [24]: 99.3%
viability, T/C [25]: 97.5%
viability, T/C [26]: 93.2%
viability, T/C [27]: 91.8%
viability, T/C [28]: 90.2%
viability, T/C [29]: 97.5%
viability, T/C [30]: 98.8%
viability, T/C [31]: 93.6%
viability, T/C [32]: 95.7%
viability, T/C [33]: 109%
viability, T/C [34]: 91.5%
viability, T/C [35]: 102%
viability, T/C [36]: 91.5%

COc1cccc2c1C(=O)c1c(O)c3c(c(O)c1C2=O)CC(O)(C(=O)CO)CC3OC1CC(N)C(O)C(C)O1 (stereo not given) + Cc1cccc(N(C)C(=O)C2C(O)CCN2c2nc(C)cc(C(F)(F)F)c2C#N)c1
IC50 (second compound 0.0316 µM): 2.65 µM
IC50 (second compound 0.1 µM): 2.39 µM
IC50 (second compound 0.316 µM): 4.16 µM
IC50 (second compound 1 µM): 1.54 µM
IC50 (second compound 3.16 µM): 2 µM
IC50 (second compound 10 µM): 1.78 µM
viability, T/C [1]: 81.4%
viability, T/C [2]: 98.2%
viability, T/C [3]: 104%
viability, T/C [4]: 85.8%
viability, T/C [5]: 43.6%
viability, T/C [6]: 10.9%
viability, T/C [7]: 101%
viability, T/C [8]: 102%
viability, T/C [9]: 113%
viability, T/C [10]: 76.6%
viability, T/C [11]: 42.2%
viability, T/C [12]: 9.45%
viability, T/C [13]: 99.3%
viability, T/C [14]: 108%
viability, T/C [15]: 116%
viability, T/C [16]: 95.4%
viability, T/C [17]: 63.4%
viability, T/C [18]: 9.08%
viability, T/C [19]: 92.8%
viability, T/C [20]: 111%
viability, T/C [21]: 99.8%
viability, T/C [22]: 63.7%
viability, T/C [23]: 26.1%
viability, T/C [24]: 9.7%
viability, T/C [25]: 82.9%
viability, T/C [26]: 115%
viability, T/C [27]: 92.2%
viability, T/C [28]: 97%
viability, T/C [29]: 18.8%
viability, T/C [30]: 10.2%
viability, T/C [31]: 102%
viability, T/C [32]: 104%
viability, T/C [33]: 90.7%
viability, T/C [34]: 56.2%
viability, T/C [35]: 41.9%
viability, T/C [36]: 9.99%
